This experiment concerns the target T1, endopeptidase 24.11 (Rattus norvegicus, UniProt P07861).
T1 construct: was prepared by extracting from a rat kidney; from tissue; host or cells: Wistar rat kidney, homogenate pellet after ultracentrifugation (crude membrane preparation)
T1 sequence (P07861 1-750): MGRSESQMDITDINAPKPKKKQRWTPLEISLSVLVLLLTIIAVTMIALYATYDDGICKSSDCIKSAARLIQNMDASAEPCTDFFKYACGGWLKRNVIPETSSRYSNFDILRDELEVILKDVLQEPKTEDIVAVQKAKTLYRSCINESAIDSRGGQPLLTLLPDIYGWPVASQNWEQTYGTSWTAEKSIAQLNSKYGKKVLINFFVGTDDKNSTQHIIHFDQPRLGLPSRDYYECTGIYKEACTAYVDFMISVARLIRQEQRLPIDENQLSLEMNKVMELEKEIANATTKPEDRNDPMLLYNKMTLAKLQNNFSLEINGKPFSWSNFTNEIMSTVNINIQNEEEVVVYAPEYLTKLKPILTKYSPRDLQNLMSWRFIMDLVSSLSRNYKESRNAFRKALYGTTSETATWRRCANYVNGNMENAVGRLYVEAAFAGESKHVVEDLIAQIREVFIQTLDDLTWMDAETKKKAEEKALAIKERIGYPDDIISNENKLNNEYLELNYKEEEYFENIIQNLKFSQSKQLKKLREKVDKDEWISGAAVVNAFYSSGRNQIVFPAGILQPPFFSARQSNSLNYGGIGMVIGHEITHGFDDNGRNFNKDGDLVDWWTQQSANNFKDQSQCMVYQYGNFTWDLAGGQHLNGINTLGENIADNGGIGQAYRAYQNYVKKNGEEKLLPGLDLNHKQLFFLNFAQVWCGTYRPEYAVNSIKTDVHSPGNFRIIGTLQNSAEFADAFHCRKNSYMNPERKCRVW
Briefly: inhibition of endopeptidase 24.11 activity (cleavage of N-dansyl-D-alanyl-glycyl-p-nitrophenylalanyl-glycine, DAGNPG; rat kidney enzyme preparation). The following applies: DAGNPG 50 μM, pH 7.4, 37° C., 30 minutes, read-out: IC50 (concentration required to inhibit endopeptidase 24.11 by 50%). It is filed as biochemical, Wistar rat. The text has this:
As a method for measuring an endopeptidase 24.11 activity, Florentin et al. had reported a method for measuring the enzyme activity by a degree of cleavage of a peptide bond between glycine and p-nitrophenylalanine using N-dansyl-D-alanyl-glycyl-p-nitrophenylalanyl-glycine (DAGNPG) as a substrate (Anal. Biochem., 141, 62-69 (1984)). An effect of the compounds of the invention on endopeptidase 24.11 was examined according to the method described in the literature.
An enzyme preparation used in this pharmacological test was prepared by extracting from a rat kidney by the following method according to the method of Malfloy et al. (J. Biol. Chem., 259, 14365-14370 (1984)).
A kidney was excised from a Wistar rat. The kidney was homogenized in Tris-hydrochloric acid buffer (5 mM, pH 7.4, containing 125 mM D-mannitol and 12 mM magnesium chloride). The homogenate was centrifuged at low speed (1,000×g) to give a supernatant. The supernatant was ultracentrifuged ([…]) for 120 minutes. The resulting pellet was suspended in Tris-hydrochloric acid buffer (2.5 mM, pH 7.4, containing 62.5 mM D-mannitol and 6 mM magnesium chloride). The suspension was centrifuged at low speed and then ultracentrifuged again. The resulting pellet was suspended in HEPES buffer (5 mM, pH 7.4) to give the enzyme preparation.
In order to examine the effect of the compounds of the invention on the enzyme preparation, reactions were performed under the following condition using mixed solutions consisting of the composition shown in Table 1. […]
______________________________________
Enzyme preparation 0.3-0.5 μg protein
The above-mentioned solution (150 μl) was incubated at 37° C. for 30 minutes and then boiled at 100° C. for 5 minutes. To the solution was added 1.35 ml of Tris-hydrochloric acid buffer (50 mM, pH 7.4). The mixture was centrifuged at moderate speed (5,000×g) for 5 minutes to give a supernatant. Fluorescence intensity of the supernatant (excitation at 342 nm of wave length and emission at 562 nm) was measured.
The degree of the inhibitory effect of each test compound on the enzyme preparation was expressed by the inhibition rate calculated by the following equation. [formula]
A: fluorescence intensity of the sample in the absence of the test compound
B: fluorescence intensity of the sample in the presence of the test compound
As for `CC(C)CN(CC(O)C(=O)O)C(=O)N[C@@H](Cc1ccccc1)C(=O)O` (mixture of isomers) [Compound No. 2-1, (2S)-2-[3-[(2RS)-2-Carboxy-2-hydroxyethyl]-3-isobutylureido]-3-phenylpropionic acid], the IC50 was 5.4 nM.
Then `CC(C)CN(CC(O)C(=O)O)C(=O)N[C@@H](Cc1ccc(-c2ccccc2)cc1)C(=O)O` (mixture of isomers) [Compound No. 3-1, (2S)-3-(4-Biphenylyl)-2-[3-[(2RS)-2-carboxy-2-hydroxyethyl]-3-isobutylureido]propionic acid], with 1.1 nM; and `CC(C)CN(CC(O)C(=O)O)C(=O)N[C@@H](Cc1ccc(-c2ccc(F)cc2)cc1)C(=O)O` (mixture of isomers) [Compound No. 3-2, (2S)-2-[3-[(2RS)-2-Carboxy-2-hydroxyethyl]-3-isobutylureido]-3-[4-(4-fluorophenyl)phenyl]propionic acid], with 3.1 nM; and `CC(C)CN(CC(O)C(=O)O)C(=O)N[C@H](C(=O)O)c1ccccc1` (mixture of isomers) [Compound No. 3-4, (2RS)-3-[3-[(S)-α-Carboxybenzyl]-1-isobutylureido]-2-hydroxypropionicacid], with 65 nM.
Then `CC(C)CN(C[C@H](O)C(=O)NO)C(=O)N[C@@H](Cc1ccccc1)C(=O)O` [Compound No. 8-1, (2S)-2-[3-[(2S)-2-Hydroxy-2-hydroxycarbamoylethyl]-3-isobutylureido]-3-phenylpropionic acid], with 0.32 nM; and `CC(C)CN(C[C@H](O)C(=O)O)C(=O)N[C@@H](Cc1ccc(-c2ccccc2)cc1)C(=O)O` [Compound No. 8-2, (2S)-3-(4-Biphenylyl)-2-[3-[(2S)-2-carboxy-2-hydroxyethyl]-3-isobutylureido]propionic acid], with 0.95 nM; and `CC(C)CN(C[C@@H](O)C(=O)O)C(=O)N[C@@H](Cc1ccc(-c2ccccc2)cc1)C(=O)O` [Compound No. 8-3, (2S)-3-(4-Biphenylyl)-2-[3-[(2R)-2-carboxy-2-hydroxyethyl]-3-isobutylureido]propionic acid], with 2.1 nM.
As to `CC(C)CN(C[C@H](O)C(=O)NO)C(=O)N[C@@H](Cc1ccc(-c2ccccc2)cc1)C(=O)O` [Compound No. 8-9, (2S)-3-(4-Biphenylyl)-2-[3-[(2S)-2-hydroxy-2-hydroxycarbamoylethyl]-3-isobutylureido]propionic acid], the IC50 came to 0.16 nM.
Then `CC(C)CN(C[C@H](O)C(=O)NO)C(=O)N[C@@H](Cc1ccc2ccccc2c1)C(=O)O` [Compound No. 9-1, (2S)-2-[3-[(2S)-2-Hydroxy-2-hydroxycarbamoylethyl]-3-isobutylureido]-3-(2-naphthyl)propionic acid], with 0.27 nM.

Values taken from US5891912A, “1,3-dialkylurea derivatives having a hydroxyl group” (Santen Pharmaceutical Co., Ltd., priority 1994, dated 1999).
